Laboratory results: patent US20080176857A1, “4-Piperazinnylthieno[2,3-d]Pyrimidine Compounds as Platelet Aggregation Inhibitors” (priority 2005, published 2008)
Where “and” joins values, the source holds several entries; their conditions need not be identical. Equal values may be shown once.

Target: P2Y12 receptor (Homo sapiens, UniProt Q9H244)
Experiment: [33P]-2MeS-ADP binding to recombinant human P2Y12 membranes (Assay 3)
Set-up: expressed in transfected cells; host or cells: HEK cells
Conditions: for IC50 / Ki: HEK cell membranes expressing human P2Y12, competition with 33P 2MeS-ADP; for inhibition at 10 µM / % Inhibition: 10 μM
Summary of the method: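 Membranes from HEK cells transfected with human P2Y12, used in competitive binding against [33P]-2MeS-ADP in Tris/NaCl/EDTA buffer with 0.02% BSA. Seven-point 3-fold dilutions from 10 μM final, 1 h at room temperature, then filtration and scintillation counting. IC50 from four-parameter fit with Hill slope fixed at one, plate controls defining min/max.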

[1] = at highest concentration tested

P2Y12 receptor, sequence (Q9H244 whole entry): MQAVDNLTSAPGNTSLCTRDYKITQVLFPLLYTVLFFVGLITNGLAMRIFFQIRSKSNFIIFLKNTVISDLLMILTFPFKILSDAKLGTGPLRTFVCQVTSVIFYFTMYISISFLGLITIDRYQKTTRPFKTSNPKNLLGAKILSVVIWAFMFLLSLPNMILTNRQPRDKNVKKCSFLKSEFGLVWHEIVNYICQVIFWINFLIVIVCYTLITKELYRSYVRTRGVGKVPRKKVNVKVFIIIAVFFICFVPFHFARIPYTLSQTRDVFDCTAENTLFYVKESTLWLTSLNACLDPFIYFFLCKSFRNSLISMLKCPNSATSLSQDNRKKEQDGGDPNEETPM

Row | Compound | IC50 | Ki | inhibition at 10 µM [1] | inhibition at 1 µM (at highest concentration tested, 1 μM) | % Inhibition [1]
1 | CCc1cc2c(N3CCN(C(=O)c4c(-c5ccc(OC)cc5)noc4C)CC3)nc(SCC(=O)OC)nc2s1 [Example 68, Methyl {[6-ethyl-4-(4-{[3-(4-methoxyphenyl)-5-methylisoxazol-4-yl]carbonyl}piperazin-1-yl)thieno[2,3-d]pyrimidin-2-yl]thio}acetate] | 6420 nM | 3880 nM | 96.4% | – | –
2 | CCc1cc2c(N3CCN(C(=O)c4csc(-c5ccccc5)n4)CC3)nc(SCC(=O)OC)nc2s1 [Example 69, Methyl [(6-ethyl-4-{4-[(2-phenyl-1,3-thiazol-4-yl)carbonyl]piperazin-1-yl}thieno[2,3-d]pyrimidin-2-yl)thio]acetate] | 87.8 nM | 53 nM | 56.8% | – | –
3 | CCCCOc1ccc(C(=O)N2CCN(c3nc(SCC(=O)OC)nc4sc(CC)cc34)CC2)cc1 [Example 73, Methyl ({4-[4-(4-butoxybenzoyl)piperazin-1-yl]-6-ethylthieno[2,3-d]pyrimidin-2-yl}thio)acetate] | 371 nM | 230 nM | 82% | – | –
4 | CCc1cc2c(N3CCN(C(=O)c4cccc(N(C)C)c4)CC3)nc(SCC(=O)OC)nc2s1 [Example 74, Methyl [(4-{4-[3-(dimethylamino)benzoyl]piperazin-1-yl}-6-ethylthieno[2,3-d]pyrimidin-2-yl)thio]acetate] | 5740 nM | 3690 nM | 59% | – | –
5 | CCc1cc2c(N3CCN(C(=O)c4ccc(C(N)=O)cc4)CC3)nc(SCC(=O)OC)nc2s1 [Example 79, Methyl [(4-{4-[4-(aminocarbonyl)benzoyl]piperazin-1-yl}-6-ethylthieno[2,3-d]pyrimidin-2-yl)thio]acetate] | 8700 nM | 5050 nM | 47.7% | – | –
6 | CCc1cc2c(N3CCN(C(=O)c4ccc(C(=O)OC)cc4)CC3)nc(SCC(=O)OC)nc2s1 [Example 80, Methyl 4-[(4-{6-ethyl-2-[(2-methoxy-2-oxoethyl)thio]thieno[2,3-d]pyrimidin-4-yl}piperazin-1-yl)carbonyl]benzoate] | 3780 nM | 2450 nM | 60% | – | –
7 | CCc1cc2c(N3CCN(C(=O)c4csc(-c5cccnc5)n4)CC3)nc(SCC(=O)OC)nc2s1 [Example 81, Methyl [(6-ethyl-4-{4-[(2-pyridin-3-yl-1,3-thiazol-4-yl)carbonyl]piperazin-1-yl}thieno[2,3-d]pyrimidin-2-yl)thio]acetate] | 1720 nM | 1070 nM | 76.7% | – | –
8 | CCc1cc2c(N3CCN(C(=O)Cc4ccccc4)CC3)nc(SCCC(=O)OC)nc2s1 [Example 82, methyl 3-({6-ethyl-4-[4-(phenylacetyl)piperazin-1-yl]thieno[2,3-d]pyrimidin-2-yl}thio)propanoate] | 390 nM and 1170 nM and 220 nM and 270 nM and 400 nM | 212 nM and 667 nM and 120 nM and 150 nM and 230 nM | 92.7% | – | 86.00% and 93.95% and 94.10% and 89.55%
9 | CCc1cc2c(N3CCN(C(=O)Cc4ccccc4)CC3)nc(SCCCCO)nc2s1 [Example 84, 4-({6-ethyl-4-[4-(phenylacetyl)piperazin-1-yl]thieno[2,3-d]pyrimidin-2-yl}thio)butan-1-ol] | 580 nM and 1440 nM and 220 nM and 270 nM and 520 nM | 315 nM and 825 nM and 130 nM and 150 nM and 300 nM | – | – | 90.62% and 71.83% and 92.13% and 94.46% and 90.58%
10 | CCc1cc2c(N3CCN(C(=O)Cc4ccccc4)CC3)nc(SCCO)nc2s1 [Example 87, 2-({6-ethyl-4-[4-(phenylacetyl)piperazin-1-yl]thieno[2,3-d]pyrimidin-2-yl}thio)ethanol] | 570 nM and 590 nM and 200 nM and 320 nM | 310 nM and 337 nM and 110 nM and 180 nM | – | – | –

Results, then the molecule that gave them:

Row | IC50 | Ki | inhibition at 10 µM [1] | inhibition at 1 µM (at highest concentration tested, 1 μM) | % Inhibition [1] | Compound
11 | 144 nM | 89 nM | 82.1% | – | – | CCc1cc2c(N3CCN(C(=O)c4nnc(-c5ccccc5)o4)CC3)nc(SCC(=O)OC)nc2s1 [Example 70, Methyl [(6-ethyl-4-{4-[(5-phenyl-1,3,4-oxadiazol-2-yl)carbonyl]piperazin-1-yl}thieno[2,3-d]pyrimidin-2-yl)thio]acetate]
12 | 289 nM | 179 nM | 89.3% | – | – | CCCOc1ccc(C(=O)N2CCN(c3nc(SCC(=O)OC)nc4sc(CC)cc34)CC2)cc1 [Example 71, Methyl ({6-ethyl-4-[4-(4-propoxybenzoyl)piperazin-1-yl]thieno[2,3-d]pyrimidin-2-yl}thio)acetate]
13 | 681 nM | 423 nM | 88.7% | – | – | CCc1cc2c(N3CCN(C(=O)c4cc(N(C)C)nc(N(C)C)n4)CC3)nc(SCC(=O)OC)nc2s1 [Example 72, Methyl {[4-(4-{[2,6-bis(dimethylamino)pyrimidin-4-yl]carbonyl}piperazin-1-yl)-6-ethylthieno[2,3-d]pyrimidin-2-yl]thio}acetate]
14 | 3500 nM | 2250 nM | 70.5% | – | – | CCc1cc2c(N3CCN(C(=O)c4cccc(OC)c4)CC3)nc(SCC(=O)OC)nc2s1 [Example 75, Methyl ({6-ethyl-4-[4-(3-methoxybenzoyl)piperazin-1-yl]thieno[2,3-d]pyrimidin-2-yl}thio)acetate]
15 | 1170 nM | 730 nM | 75.9% | – | – | CCOc1cccc(C(=O)N2CCN(c3nc(SCC(=O)OC)nc4sc(CC)cc34)CC2)c1 [Example 76, Methyl ({4-[4-(3-ethoxybenzoyl)piperazin-1-yl]-6-ethylthieno[2,3-d]pyrimidin-2-yl}thio)acetate]
16 | 4850 nM | 2810 nM | 63.4% | – | – | CCc1cc2c(N3CCN(C(=O)c4ccc5nccnc5c4)CC3)nc(SCC(=O)OC)nc2s1 [Example 77, Methyl ({6-ethyl-4-[4-(quinoxalin-6-ylcarbonyl)piperazin-1-yl]thieno[2,3-d]pyrimidin-2-yl}thio)acetate]
17 | 35 nM and 20 nM and 69 nM | 20 nM and 10 nM and 40 nM | 92.6% | 94% | 87.73% | CCc1cc2c(N3CCN(C(=O)c4cccc(-c5ccccc5)c4)CC3)nc(SCC(=O)OC)nc2s1 [Example 78, Methyl ({4-[4-(1,1′-biphenyl-3-ylcarbonyl)piperazin-1-yl]-6-ethylthieno[2,3-d]pyrimidin-2-yl}thio)acetate]
18 | 230 nM and 940 nM and 430 nM and 470 nM | 127 nM and 540 nM and 240 nM and 270 nM | 92% | – | 90.75% and 91.85% and 86.17% | CCc1cc2c(N3CCN(C(=O)Cc4ccccc4)CC3)nc(SCC(=O)O)nc2s1 [Example 83, ({6-ethyl-4-[4-(phenylacetyl)piperazin-1-yl]thieno[2,3-d]pyrimidin-2-yl}thio)acetic acid]
19 | 1680 nM and 1480 nM and 640 nM and 370 nM and 1200 nM | 913 nM and 848 nM and 370 nM and 210 nM and 700 nM | 94.1% | – | 80.30% and 84.54% and 89.14% and 82.41% | CCc1cc2c(N3CCN(C(=O)Cc4ccccc4)CC3)nc(SCCN(C)C)nc2s1 [Example 88, N-[2-({6-ethyl-4-[4-(phenylacetyl)piperazin-1-yl]thieno[2,3-d]pyrimidin-2-yl}thio)ethyl]-N,N-dimethylamine]
